Paper PMC9469100, “Turning Nonselective Inhibitors of Type I Protein Arginine Methyltransferases into Potent and Selective Inhibitors of Protein Arginine Methyltransferase 4 through a Deconstruction–Reconstruction and Fragment-Growing Approach” (Journal of Medicinal Chemistry, 2022)
Entries after “also recorded” stand apart in the source; their conditions may differ. Where two headings read alike, the source gives them in different places.

How the values were obtained:
PRMT7 = target: T1, PRMT7 (Homo sapiens, UniProt Q9NVM4); assay: Radioisotope-based filter-binding (HotSpot) assay, PRMT7; conditions: read-out: IC50 (μM) PRMT7; radioisotope-based filter assay; 5 μM GST-GAR; 1 μM 3H-SAM
T1 sequence (Q9NVM4 2-692): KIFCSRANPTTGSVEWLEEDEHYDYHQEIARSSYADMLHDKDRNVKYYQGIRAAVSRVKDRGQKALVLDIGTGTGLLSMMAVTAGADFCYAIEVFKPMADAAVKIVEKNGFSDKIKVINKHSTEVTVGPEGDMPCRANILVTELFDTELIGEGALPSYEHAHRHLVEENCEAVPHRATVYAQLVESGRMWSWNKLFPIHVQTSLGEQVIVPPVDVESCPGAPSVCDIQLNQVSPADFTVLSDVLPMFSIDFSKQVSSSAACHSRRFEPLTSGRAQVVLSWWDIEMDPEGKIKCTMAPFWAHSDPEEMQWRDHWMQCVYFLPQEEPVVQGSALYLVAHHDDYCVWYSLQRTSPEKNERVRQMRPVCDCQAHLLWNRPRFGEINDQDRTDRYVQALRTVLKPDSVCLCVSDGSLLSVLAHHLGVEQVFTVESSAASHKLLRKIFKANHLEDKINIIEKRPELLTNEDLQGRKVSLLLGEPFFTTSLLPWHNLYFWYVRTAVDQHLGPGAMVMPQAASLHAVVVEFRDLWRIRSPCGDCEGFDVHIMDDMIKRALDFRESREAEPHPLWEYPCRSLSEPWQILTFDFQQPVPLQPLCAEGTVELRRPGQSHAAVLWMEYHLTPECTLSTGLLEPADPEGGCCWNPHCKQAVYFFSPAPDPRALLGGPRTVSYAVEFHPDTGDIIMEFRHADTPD
Method: (§2) Then, ^3H-SAM (final concentration 1 μM) was delivered into the reaction mixture to initiate the reaction. After incubation for 60 min at 30 °C, the reaction mixture was delivered to filter paper for detection (as assessed by scintillation). Data were analyzed using Excel and GraphPad Prism 6.0 software (GraphPad Software Inc., San Diego, CA) for IC50 curve fits using sigmoidal dose vs response-variable slope (four parameters) equations.

ΔN(1–60)-PRMT8 = ΔN(1–60)-PRMT8 (Homo sapiens, UniProt Q9NR22); assay: Radioisotope-based filter-binding (HotSpot) assay, PRMT8
Chain of ΔN(1–60)-PRMT8 (Q9NR22 61-394, stated change not applied): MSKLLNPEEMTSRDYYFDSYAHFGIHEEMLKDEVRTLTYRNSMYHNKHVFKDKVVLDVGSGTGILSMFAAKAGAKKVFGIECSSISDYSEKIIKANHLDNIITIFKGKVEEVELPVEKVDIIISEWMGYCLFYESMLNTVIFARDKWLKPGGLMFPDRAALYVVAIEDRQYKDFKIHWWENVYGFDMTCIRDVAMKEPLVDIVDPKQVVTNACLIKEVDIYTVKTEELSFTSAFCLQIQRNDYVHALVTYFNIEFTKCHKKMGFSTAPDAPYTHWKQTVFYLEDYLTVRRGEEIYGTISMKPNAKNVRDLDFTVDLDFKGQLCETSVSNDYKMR
Method: as §2

PRMT1 = PRMT1 (Homo sapiens, UniProt Q99873); assay: AlphaLISA PRMT1 activity assay (H4R3me)
Chain of PRMT1 (Q99873 whole entry): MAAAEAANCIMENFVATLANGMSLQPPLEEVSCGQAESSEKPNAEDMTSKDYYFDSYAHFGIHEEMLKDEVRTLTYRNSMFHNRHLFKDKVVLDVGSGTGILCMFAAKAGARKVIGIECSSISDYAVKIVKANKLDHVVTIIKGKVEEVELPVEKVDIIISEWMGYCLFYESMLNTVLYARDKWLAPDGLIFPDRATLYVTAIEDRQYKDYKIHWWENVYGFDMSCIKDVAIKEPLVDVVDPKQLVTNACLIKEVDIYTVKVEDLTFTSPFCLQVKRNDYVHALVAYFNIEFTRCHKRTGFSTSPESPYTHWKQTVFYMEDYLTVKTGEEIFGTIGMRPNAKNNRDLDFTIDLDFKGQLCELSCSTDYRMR
Method: Then, we resolved to determine their effect on the catalytic activity of human recombinant PRMT1, chosen as representative of class I PRMTs. […] PRMT1 activity assays were performed by taking advantage of the AlphaLISA homogeneous proximity assay.
The reaction was incubated for 60 min, and then it was stopped by the addition of 5 μL of antimethyl-histone H4 arginine 3 (H4R3me) AlphaLISA acceptor beads (PerkinElmer, #AL150) (final concentration, 20 μg/mL) diluted in Epigenetic Buffer 1X (PerkinElmer, #AL008).
For each incubation step, the OptiPlate was sealed with protective foil to prevent evaporation and contamination. Donor and acceptor beads were added in subdued light.
The 100% activity (positive control) was reached using the vehicle (DMSO) while the 0% activity (negative control) was obtained without the protein. Data were analyzed using Excel software. Values obtained for each compound are mean ± SD determined for three separate experiments.

SET7/9 = target: T2, SET7/9 (Homo sapiens, UniProt Q8WTS6); assay: HotSpot KMT activity assay, SET7/9; assay type: biochemical; conditions: 1 µM; mean ± SD, two experiments; read-out: % enzyme residual activ. after treatment with 12h, 1 µM, SET7/9
T2 construct: SET7/9 (residues 2–366, C-terminus); with a N-terminal GST-tag and a C-terminal His-tag; GST (N); His (C); purchased Reaction Biology Corporation
T2 sequence (Q8WTS6 2-366): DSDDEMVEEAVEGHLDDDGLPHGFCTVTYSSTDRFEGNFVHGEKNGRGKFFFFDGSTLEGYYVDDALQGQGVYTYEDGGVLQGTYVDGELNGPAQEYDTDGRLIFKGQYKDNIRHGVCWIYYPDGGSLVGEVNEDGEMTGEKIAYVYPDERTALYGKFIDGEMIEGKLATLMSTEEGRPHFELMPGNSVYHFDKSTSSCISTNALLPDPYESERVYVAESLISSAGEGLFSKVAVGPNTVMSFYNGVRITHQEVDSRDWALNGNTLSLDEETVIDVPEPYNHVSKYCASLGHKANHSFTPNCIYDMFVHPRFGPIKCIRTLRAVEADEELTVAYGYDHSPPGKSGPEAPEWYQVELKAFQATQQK
Method: (§1) Then, ^3H-SAM (final concentration 1 μM) was delivered into the reaction mixture to initiate the reaction. After incubation for 60 min at 30 °C, the reaction mixture was delivered to filter-paper for detection (as assessed by scintillation). […] No inhibitor control (DMSO) was considered as 100% enzyme activity. Data were analyzed using Excel and GraphPad Prism 6.0 software (GraphPad Software Inc., San Diego, CA). Values obtained for each compound are mean ± SD determined for two separate experiments.

EZH2 complex = target: T3, EZH2 complex (Homo sapiens, UniProt Q15910); assay: HotSpot KMT activity assay, EZH2; assay type: biochemical; conditions: mean ± SD, two experiments, read-out: % enzyme residual activ. after treatment with 12h, 1 µM, EZH2
T3 construct: including EZH2 residues 2–746, AEBP2 2–517; His (N); purchased Reaction Biology Corporation
Method: as §1

SETD8 = target: T4, SETD8 (Homo sapiens, UniProt Q9NQR1); assay: HotSpot KMT activity assay, SETD8; assay type: biochemical; conditions: 1 µM; mean ± SD, two experiments; read-out: % enzyme residual activ. after treatment with 12h, 1 µM, SETD8
T4 construct: SETD8 (residues 190–352, C-terminus); N-terminal His-tag; His (N); purchased Reaction Biology Corporation
T4 sequence (Q9NQR1 231-393): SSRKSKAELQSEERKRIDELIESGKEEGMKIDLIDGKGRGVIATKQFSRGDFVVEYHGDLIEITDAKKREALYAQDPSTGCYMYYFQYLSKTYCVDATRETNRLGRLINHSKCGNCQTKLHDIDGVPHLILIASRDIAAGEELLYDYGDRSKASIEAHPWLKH
Method: as §1

PRMT4 (MCF7 cells) = assay: Western blot with pan-PRMT4 substrate antibody, MCF7; conditions: 12h 10 and 50 μM, TP-064 10 μM; 4 and 8 days; PRMT4sub immunoblot
Method: (§3) HEK293T or MCF7 cells were treated with different compounds and then harvested and lysed at the indicated time, and the cell lysates were applied to Western blot analysis. In brief, cells were harvested and washed three times with cold PBS, and then cell lysis buffer (50 mM Tris-HCl, pH 7.5, 150 mM NaCl, 1% Nonidet P-40, 0.1% SDS, 1% sodium deoxycholate, 5 mM EDTA, supplemented with proteinase inhibitor mixture) was added to obtain the cell lysates. Cell debris was pelleted and discarded, whereas the supernatant was kept. Protein samples were added with SDS loading buffer and boiled for 10 min, followed by SDS-PAGE. Then the proteins were transferred to a PVDF membrane. The membrane was blocked with 5% fat-free milk for 1 h at room temperature and then incubated with primary antibodies (antihistone H3, Abcam, #ab18521; pan-PRMT4 substrate antibody, made in-house) at 4 °C overnight. The blot was then washed three times with PBST and incubated with secondary antibodies for 1 h at room temperature. After being washed three times with PBST, the membrane was incubated with ECL reagent, and the signals were detected on X-ray film.
(§4) The anti-PRMT4 substrate antibody was raised against the R388 site in the transcription factor NFIB.

[1] = system: panel of eight lysine methyltransferases (KMTs); assay: Selectivity assay against a panel of KMTs; assay type: biochemical, human; conditions: 12h at 1 and 10 μM; ASH1L, EZH2, MLL1, SET7/9, SETD8, SUV39H2, SUV420H1, DOT1L
Method: as §1

DOT1L = target: T5, DOT1L (Homo sapiens, UniProt Q8TEK3); assay: HotSpot KMT activity assay, DOT1L; assay type: biochemical; conditions: mean ± SD, two experiments, read-out: % enzyme residual activ. after treatment with 12h, 1 µM, DOT1L
T5 construct: DOT1L (residues 1–416); N-terminal GST-tag; GST (N); purchased Reaction Biology Corporation
T5 sequence (Q8TEK3 1-416): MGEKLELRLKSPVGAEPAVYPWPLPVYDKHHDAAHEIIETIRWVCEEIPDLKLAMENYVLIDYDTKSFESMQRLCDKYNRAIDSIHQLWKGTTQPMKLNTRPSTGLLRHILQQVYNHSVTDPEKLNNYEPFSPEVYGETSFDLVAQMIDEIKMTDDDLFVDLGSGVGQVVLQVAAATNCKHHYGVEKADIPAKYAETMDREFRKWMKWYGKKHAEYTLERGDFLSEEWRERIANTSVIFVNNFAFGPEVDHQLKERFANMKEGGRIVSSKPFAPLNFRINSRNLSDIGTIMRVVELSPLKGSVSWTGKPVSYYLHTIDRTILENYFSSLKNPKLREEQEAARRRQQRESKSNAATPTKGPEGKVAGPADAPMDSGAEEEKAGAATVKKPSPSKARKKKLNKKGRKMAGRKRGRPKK
Method: as §1

SMYD3 = SMYD3 (Homo sapiens, UniProt Q9H7B4); assay: HotSpot KMT activity assay, SMYD3; assay type: biochemical; conditions: 1 µM; mean ± SD, two experiments; read-out: % enzyme residual activ. after treatment with 12h, 1 µM, SMYD3
Chain of SMYD3 (Q9H7B4 whole entry): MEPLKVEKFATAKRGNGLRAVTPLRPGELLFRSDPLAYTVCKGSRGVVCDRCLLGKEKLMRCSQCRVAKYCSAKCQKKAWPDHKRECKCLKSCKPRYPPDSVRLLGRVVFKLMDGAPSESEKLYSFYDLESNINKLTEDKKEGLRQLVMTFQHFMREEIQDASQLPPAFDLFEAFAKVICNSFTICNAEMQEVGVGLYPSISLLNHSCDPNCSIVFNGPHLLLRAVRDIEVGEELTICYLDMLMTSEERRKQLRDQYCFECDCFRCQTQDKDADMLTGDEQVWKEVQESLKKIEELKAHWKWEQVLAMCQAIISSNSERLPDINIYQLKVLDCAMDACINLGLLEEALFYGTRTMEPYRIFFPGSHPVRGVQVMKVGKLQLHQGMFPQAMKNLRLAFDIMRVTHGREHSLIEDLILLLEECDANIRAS
Method: as §1

MLL1 complex = target: T6, MLL1 complex (Homo sapiens, UniProt Q03164); assay: HotSpot KMT activity assay, MLL1; assay type: biochemical; conditions: 1 µM; mean ± SD, two experiments; read-out: % enzyme residual activ. after treatment with 12h, 1 µM, MLL1
T6 construct: including MLL1 residues 3745–3969, C-terminus; His (N); purchased Reaction Biology Corporation
Method: as §1

PRMT4 (HEK293T cells) = assay: Western blot with pan-PRMT4 substrate antibody, HEK293T; conditions: HEK293T; 10 and 50 μM; 24 h; PRMT4sub immunoblot
Method: as §3, §4

G9a = G9a (Homo sapiens, UniProt Q96KQ7); assay: HotSpot KMT activity assay, G9a; assay type: biochemical; conditions: mean ± SD, two experiments, read-out: % enzyme residual activ. after treatment with 12h, 1 µM, G9a
Chain of G9a (Q96KQ7 whole entry): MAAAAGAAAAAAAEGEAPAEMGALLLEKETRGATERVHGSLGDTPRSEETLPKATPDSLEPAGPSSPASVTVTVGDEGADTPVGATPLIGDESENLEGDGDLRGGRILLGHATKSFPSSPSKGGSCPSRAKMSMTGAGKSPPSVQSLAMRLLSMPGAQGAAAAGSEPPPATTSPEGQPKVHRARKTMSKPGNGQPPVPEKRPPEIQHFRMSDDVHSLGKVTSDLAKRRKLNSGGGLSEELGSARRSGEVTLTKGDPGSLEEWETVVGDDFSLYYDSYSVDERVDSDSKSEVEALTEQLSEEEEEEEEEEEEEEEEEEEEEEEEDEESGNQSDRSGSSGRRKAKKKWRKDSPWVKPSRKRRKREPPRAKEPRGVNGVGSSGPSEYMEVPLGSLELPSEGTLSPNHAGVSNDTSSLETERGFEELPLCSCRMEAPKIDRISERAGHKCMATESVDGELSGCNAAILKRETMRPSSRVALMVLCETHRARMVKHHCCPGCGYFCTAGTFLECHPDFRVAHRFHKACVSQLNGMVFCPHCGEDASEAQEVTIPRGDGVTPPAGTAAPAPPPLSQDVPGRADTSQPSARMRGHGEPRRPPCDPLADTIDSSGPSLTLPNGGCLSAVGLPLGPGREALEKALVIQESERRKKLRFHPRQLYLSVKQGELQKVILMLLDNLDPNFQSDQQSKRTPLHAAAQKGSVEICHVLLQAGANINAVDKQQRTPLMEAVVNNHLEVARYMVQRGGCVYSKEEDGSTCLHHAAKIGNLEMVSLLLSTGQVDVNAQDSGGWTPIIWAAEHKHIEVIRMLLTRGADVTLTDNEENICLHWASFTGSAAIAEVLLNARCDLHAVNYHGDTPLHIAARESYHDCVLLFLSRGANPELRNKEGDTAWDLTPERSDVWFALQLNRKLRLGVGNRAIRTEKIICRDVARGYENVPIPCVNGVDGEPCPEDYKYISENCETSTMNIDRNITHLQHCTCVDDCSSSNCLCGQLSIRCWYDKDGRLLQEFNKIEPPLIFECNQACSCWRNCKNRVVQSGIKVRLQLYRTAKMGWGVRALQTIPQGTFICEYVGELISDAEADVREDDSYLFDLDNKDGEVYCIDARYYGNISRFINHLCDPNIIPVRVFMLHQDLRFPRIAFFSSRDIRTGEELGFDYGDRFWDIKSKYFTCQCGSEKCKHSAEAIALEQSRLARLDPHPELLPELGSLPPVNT
Method: as §1

SUV420H1 = target: T7, SUV420H1 (Homo sapiens, UniProt Q4FZB7); assay: HotSpot KMT activity assay, SUV420H1; assay type: biochemical; conditions: 1 µM; mean ± SD, two experiments; read-out: % enzyme residual activ. after treatment with 12h, 1 µM, SUV420H1
T7 construct: SUV420H1-tv2 (residues 2–393); C-terminus; N-terminal GST-tag; GST (N); purchased Reaction Biology Corporation
T7 sequence (Q4FZB7 2-393 isoform Q4FZB7-2): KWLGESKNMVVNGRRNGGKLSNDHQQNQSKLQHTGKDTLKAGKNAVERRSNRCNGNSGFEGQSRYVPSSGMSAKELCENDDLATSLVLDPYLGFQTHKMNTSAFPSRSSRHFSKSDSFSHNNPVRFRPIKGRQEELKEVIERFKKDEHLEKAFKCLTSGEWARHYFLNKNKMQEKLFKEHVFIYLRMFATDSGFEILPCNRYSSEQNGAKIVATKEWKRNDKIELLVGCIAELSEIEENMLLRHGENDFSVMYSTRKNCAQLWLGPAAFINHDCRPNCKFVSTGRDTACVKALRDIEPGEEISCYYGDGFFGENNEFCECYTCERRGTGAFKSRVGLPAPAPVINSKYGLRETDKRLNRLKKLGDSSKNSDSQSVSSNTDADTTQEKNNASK
Method: as §1

ASH1L = target: T8, ASH1L (Homo sapiens, UniProt Q9NR48); assay: HotSpot KMT activity assay, ASH1L; assay type: biochemical; conditions: 1 µM; mean ± SD, two experiments; read-out: % enzyme residual activ. after treatment with 12h, 1 µM, ASH1L
T8 construct: ASH1L (residues 2046–2330, with an N-terminal His-tag); His (N); purchased Reaction Biology Corporation
Method: as §1

[2] = read-out: IC50 (μM) PRMT8, 5 μM histone H4, 1 μM 3H-SAM
[3] = read-out: IC50 PRMT8 (Figure 5 heatmap)

Row | SMILES | IC50 (PRMT7) [µM] | IC50 (ΔN(1–60)-PRMT8; [2]) [µM] | IC50 (ΔN(1–60)-PRMT8; [3]) [µM] | further results
1 | COC(=O)c1cc(O)c2cc(NC(=O)NCCCCCNC(=N)NC[C@H]3O[C@@H](n4cnc5c(N)ncnc54)[C@H](O)[C@@H]3O)ccc2c1 [12c, Methyl 6-(3-(5-(3-(((2R,3S,4R,5R)-5-(6-Amino-9H-purin-9-yl)-3,4-dihydroxytetrahydrofuran-2-yl)methyl)guanidino)pentyl)ureido)-4-hydroxy-2-naphthoate] | 0.22 | 5.87 | 5.87 | IC50 (PRMT1): 300 nM
2 | COC(=O)c1cc(O)c2cc(NC(=O)NCCCCCCCNC(=N)NC[C@H]3O[C@@H](n4cnc5c(N)ncnc54)[C@H](O)[C@@H]3O)ccc2c1 [12e, Methyl 6-(3-(7-(3-(((2R,3S,4R,5R)-5-(6-Amino-9H-purin-9-yl)-3,4-dihydroxytetrahydrofuran-2-yl)methyl)guanidino)heptyl)ureido)-4-hydroxy-2-naphthoate] | 0.631 | 5.84 |  | 
3 | COC(=O)c1cc(O)c2cc(NC(=O)NCCCCNC(=N)NCC[C@H]3O[C@@H](n4cnc5c(N)ncnc54)[C@H](O)[C@@H]3O)ccc2c1 [12f, Methyl 6-(3-(4-(3-(2-((2R,3S,4R,5R)-5-(6-Amino-9H-purin-9-yl)-3,4-dihydroxytetrahydrofuran-2-yl)ethyl)guanidino)butyl)ureido)-4-hydroxy-2-naphthoate] | 0.226 | 6 | 6 | 
4 | COC(=O)c1cc(O)c2cc(NC(=O)NCCCCNC(=N)NCCC[C@H]3O[C@@H](n4cnc5c(N)ncnc54)[C@H](O)[C@@H]3O)ccc2c1 [12g, Methyl 6-(3-(4-(3-(3-((2R,3S,4R,5R)-5-(6-Amino-9H-purin-9-yl)-3,4-dihydroxytetrahydrofuran-2-yl)propyl)guanidino)butyl)ureido)-4-hydroxy-2-naphthoate] | 4.68 | 1.41 | 1.41 | 
5 | COC(=O)c1cc(O)c2cc(NC(=O)NCCCCNC(=N)NC/C=C/[C@H]3O[C@@H](n4cnc5c(N)ncnc54)[C@H](O)[C@@H]3O)ccc2c1 [12h, Methyl 6-(3-(4-(3-((E)-3-((2R,3S,4R,5R)-5-(6-Amino-9H-purin-9-yl)-3,4-dihydroxytetrahydrofuran-2-yl)allyl)guanidino)butyl)ureido)-4-hydroxy-2-naphthoate] | 1.68 | 1.95 | 1.95 | remaining activity at 1 µM (SET7/9): 112 ± 2.25%; remaining activity at 1 µM (EZH2 complex): 84.4 ± 5.51%; remaining activity at 1 µM (SETD8): 130 ± 6.36%; arginine methylation levels in MCF7 cells (PRMT4 (MCF7 cells)): evident reduction; inhibition of the KMT panel [1]: none of the enzymes was inhibited; also recorded: no inhibiting effect against these enzymes; remaining activity at 1 µM (DOT1L): 97.7 ± 3.48%; remaining activity at 1 µM (SMYD3): 72.83 ± 0.68%; remaining activity at 1 µM (MLL1 complex): 102 ± 3.11%; cellular level of arginine methylation catalyzed by PRMT4 (PRMT4 (HEK293T cells)): able to reduce the activity of PRMT4 in a concentration-dependent way; remaining activity at 1 µM (G9a): 102 ± 1.67%; remaining activity at 1 µM (SUV420H1): 104 ± 1.13%; remaining activity at 1 µM (ASH1L): 90.76 ± 0.13%
